Results on 33 molecules are retold here after US20160297830A1, “NOVEL COMPOUNDS USEFUL FOR THE TREATMENT OF BACTERIAL INFECTIOUS DISEASES” (GALAPAGOS NV, priority 2013, published 2016).

Converted amounts (≈) assume the structure as drawn.

The experiment deals with H. influenza Hi4 efflux pump KO. Nature of the experiment: Antibacterial activity assay (MIC), H. influenza Hi4. It is filed as cell-based.
As for “8-O-4-Bromo-5-Chloro-1H-pyrrole-2′-carbonylbranimycin [Compound 35]”, the “MIC Hi4 efflux pump KO” value came out at 16 µg/mL.

“8-O-5-Bromo-4-Chloro-1H-pyrrole-2′-carbonylbranimycin [Compound 33]”: the “MIC Hi4 efflux pump KO” value was 16 µg/mL.

`COC[C@H]1[C@@H](O)[C@@H]2O[C@@]34/C(C)=C/[C@@H](C)[C@@H]([C@H](O)COC)OC(=O)[C@H](COC)[C@H]3C=C[C@@H]2[C@H]4[C@@H]1O` [Branimycin, reference compound] came in with an MIC of 4 µg/mL (≈ 8.29 µM).

As to `COC[C@@H](O)[C@H]1OC(=O)[C@H](COC)[C@H]2C=C[C@H]3[C@H]4O[C@]2(/C(C)=C/[C@H]1C)[C@@H]3[C@H](O)[C@@H](C)[C@H]4O` [Compound 1, Baleomycin], the MIC worked out at 2 µg/mL (≈ 4.42 µM).

`COC[C@@H]1[C@@H](O)[C@@H]2[C@H]3C=C[C@@H]4[C@@H](COC)C(=O)O[C@H]([C@H](O)COC)[C@H](C)/C=C(\C)[C@@]24O[C@H]3[C@@H]1OC(=O)c1ccc[nH]1` [Compound 2, 8-O-1H-pyrrole-2′-carbonylbranimycin] gave an MIC of 4 µg/mL (≈ 6.95 µM).

On to `COC[C@@H](O)[C@H]1OC(=O)[C@H](COC)[C@H]2C=C[C@H]3[C@H]4O[C@]2(/C(C)=C/[C@H]1C)[C@@H]3[C@H](O)[C@@H](C)[C@H]4OC(=O)c1ccc[nH]1` [Compound 3, 8-O-1H-pyrrole-2′-carbonylbaleomycin], for which the MIC stood at 1 µg/mL (≈ 1.83 µM).

Molecule `COCC[C@H]1OC(=O)[C@H](COC)[C@H]2C=C[C@H]3[C@H]4O[C@]2(/C(C)=C/[C@H]1C)[C@@H]3[C@H](O)[C@@H](COC)[C@H]4OC(=O)c1ccc[nH]1` [Compound 4, 17-Deoxy-8-O-1H-pyrrole-2′-carbonylbranimycin] yielded an MIC of 16 µg/mL (≈ 28.6 µM).

In turn, `COC[C@@H]1[C@@H](O)[C@@H]2[C@H]3C=C[C@@H]4[C@@H](COC)C(=O)O[C@H]([C@H](O)COC)[C@H](C)/C=C(\C)[C@@]24O[C@H]3[C@@H]1OC(=O)c1ccoc1` [Compound 5, 8-O-Furane-3′-carbonylbranimycin] displayed an MIC of 8 µg/mL (≈ 13.9 µM).

On to `COC[C@@H]1[C@@H](O)[C@@H]2[C@H]3C=C[C@@H]4[C@@H](COC)C(=O)O[C@H]([C@H](O)COC)[C@H](C)/C=C(\C)[C@@]24O[C@H]3[C@@H]1OC(=O)c1ccc(C)[nH]1` [Compound 6, 8-O-5-Methyl-1H-pyrrole-2′-carbonylbranimycin], for which the MIC worked out at 32 µg/mL (≈ 54.3 µM).

`COC[C@@H](O)[C@H]1OC(=O)[C@H](COC)[C@H]2C=C[C@H]3[C@H]4O[C@]2(/C(C)=C/[C@H]1C)[C@@H]3[C@H](O)[C@@H](C)[C@H]4OC(=O)c1ccoc1` [Compound 7, 8-O-Furane-3′-carbonylbaleomycin] had an MIC of 0.5 µg/mL (≈ 0.915 µM).

On to `COC[C@@H]1[C@@H](O)[C@@H]2[C@H]3C=C[C@@H]4[C@@H](COC)C(=O)O[C@H]([C@H](O)COC)[C@H](C)/C=C(\C)[C@@]24O[C@H]3[C@@H]1OC(=O)c1cocn1` [Compound 8, 8-O-Oxazole-4′-carbonylbranimycin], for which the MIC is more than 64 µg/mL.

`COC[C@@H]1[C@@H](O)[C@@H]2[C@H]3C=C[C@@H]4[C@@H](COC)C(=O)O[C@H]([C@H](O)COC)[C@H](C)/C=C(\C)[C@@]24O[C@H]3[C@@H]1OC(=O)c1ccsc1` [Compound 9, 8-O-Thiophene-3′-carbonylbranimycin] registered an MIC of 16 µg/mL (≈ 27 µM).

`COC[C@@H]1[C@@H](O)[C@@H]2[C@H]3C=C[C@@H]4[C@@H](COC)C(=O)O[C@H]([C@H](O)COC)[C@H](C)/C=C(\C)[C@@]24O[C@H]3[C@@H]1OC(=O)c1cc[nH]n1` [Compound 10, 8-O-1H-Pyrazole-3′-carbonylbranimycin] yielded an MIC of 32 µg/mL (≈ 55.5 µM).

In turn, `COC[C@@H]1[C@@H](O)[C@@H]2[C@H]3C=C[C@@H]4[C@@H](COC)C(=O)O[C@H]([C@H](O)COC)[C@H](C)/C=C(\C)[C@@]24O[C@H]3[C@@H]1OC(=O)c1ccoc1C` [Compound 11, 8-O-2-Methylfurane-3′-carbonylbranimycin] came in with an MIC of 32 µg/mL (≈ 54.2 µM).

`COC[C@@H]1[C@@H](O)[C@@H]2[C@H]3C=C[C@@H]4[C@@H](COC)C(=O)O[C@H]([C@H](O)COC)[C@H](C)/C=C(\C)[C@@]24O[C@H]3[C@@H]1OC(=O)c1cc(C)c[nH]1` [Compound 12, 8-O-4-Methyl-1H-pyrrole-2′-carbonylbranimycin] showed an MIC of 4 µg/mL (≈ 6.78 µM).

As for `COC[C@@H]1[C@@H](O)[C@@H]2[C@H]3C=C[C@@H]4[C@@H](COC)C(=O)O[C@H]([C@H](O)COC)[C@H](C)/C=C(\C)[C@@]24O[C@H]3[C@@H]1OC(=O)c1ccon1` [Compound 13, 8-O-Isoxazole-3′-carbonylbranimycin], the MIC turned out to be 16 µg/mL (≈ 27.7 µM).

As to `COC[C@@H]1[C@@H](O)[C@@H]2[C@H]3C=C[C@@H]4[C@@H](COC)C(=O)O[C@H]([C@H](O)COC)[C@H](C)/C=C(\C)[C@@]24O[C@H]3[C@@H]1OC(=O)c1cnco1` [Compound 14, 8-O-Oxazole-5′ carbonylbranimycin], the MIC came out at 64 µg/mL (≈ 111 µM).

For the molecule `COC[C@H]1[C@@H](O)[C@@H]2O[C@@]34/C(C)=C/[C@@H](C)[C@@H]([C@H](O)COC)OC(=O)[C@H](COC)[C@H]3CC[C@@H]2[C@H]4[C@@H]1O` [Compound 15, 4,5-Dihydro-branimycin], the MIC is 64 µg/mL (≈ 132 µM).

For the molecule `COC[C@@H]1[C@@H](O)[C@@H]2[C@H]3CC[C@@H]4[C@@H](COC)C(=O)O[C@H]([C@H](O)COC)[C@H](C)/C=C(\C)[C@@]24O[C@H]3[C@@H]1OC(=O)c1ccc[nH]1` [Compound 16, 4,5-Dihydro-8-O-1H-pyrrole-2′-carbonylbranimycin], the MIC worked out at 16 µg/mL (≈ 27.7 µM).

Molecule `COCC[C@H]1OC(=O)[C@H](COC)[C@H]2C=C[C@H]3[C@H]4O[C@]2(/C(C)=C/[C@H]1C)[C@@H]3[C@H](O)[C@@H](COC)[C@H]4O` [Compound 17, 17-Deoxybranimycin] yielded an MIC of 8 µg/mL (≈ 17.1 µM).

`COC[C@@H]1[C@@H](O)[C@@H]2[C@H]3C=C[C@@H]4[C@@H](COC)C(=O)O[C@H]([C@@H](COC)OC)[C@H](C)/C=C(\C)[C@@]24O[C@H]3[C@@H]1OC(=O)c1ccc[nH]1` [Compound 18, 17-O-Methyl-8-O-1H-pyrrole-2′-carbonylbranimycin] came in with an MIC of 4 µg/mL (≈ 6.78 µM).

`COC[C@@H]1[C@@H](O)[C@@H]2[C@H]3C=C[C@@H]4[C@@H](COC)C(=O)O[C@H]([C@H](O)COC)[C@H](C)/C=C(\C)[C@@]24O[C@H]3[C@@H]1OC(=O)c1cc(F)c[nH]1` [Compound 19, 8-O-4-Fluoro-1H-pyrrole-2′-carbonylbranimycin] yielded an MIC of 0.25 µg/mL (≈ 0.421 µM).

Take `COCC(=O)[C@H]1OC(=O)[C@H](COC)[C@H]2C=C[C@H]3[C@H]4O[C@]2(/C(C)=C/[C@H]1C)[C@@H]3[C@H](O)[C@@H](COC)[C@H]4OC(=O)c1ccc[nH]1` [Compound 20, 18-Deoxy-18-oxo-8-O-1H-pyrrole-2′-carbonylbranimycin]: the MIC came out at 32 µg/mL (≈ 55.8 µM).

`COC[C@@H]1[C@@H](O)[C@@H]2[C@H]3C=C[C@@H]4[C@@H](COC)C(=O)OC[C@H](C)/C=C(\C)[C@@]24O[C@H]3[C@@H]1OC(=O)c1ccc[nH]1` [Compound 22, 17,18-Dinor-8-O-1H-pyrrole-2′-carbonybranimycin] gave an MIC of 32 µg/mL (≈ 63.8 µM).

Regarding `COC[C@@H](O)[C@H]1OC(=O)[C@H](COC)[C@H]2C=C[C@H]3[C@H]4O[C@]2(/C(C)=C/[C@H]1C)[C@@H]3[C@H](O)[C@@H](C)[C@H]4OC(=O)c1cc(F)c[nH]1` [Compound 23, 8-O-4-Fluoro-1H-pyrrole-2′-carbonylbaleomycin], the MIC stood at 0.5 µg/mL (≈ 0.887 µM).

Consider `COC[C@@H]1[C@@H](O)[C@@H]2[C@H]3C=C[C@@H]4[C@@H](COC)C(=O)O[C@H](C(C)(O)COC)[C@H](C)/C=C(\C)[C@@]24O[C@H]3[C@@H]1OC(=O)c1ccc[nH]1` (stereo partly drawn) [Compound 24, 17-Methyl-8-O-1H-pyrrole-2′-carbonylbranimycin], for which the MIC stood at 8 µg/mL (≈ 13.6 µM).

In turn, `COCC(=NO)[C@H]1OC(=O)[C@H](COC)[C@H]2C=C[C@H]3[C@H]4O[C@]2(/C(C)=C/[C@H]1C)[C@@H]3[C@H](O)[C@@H](COC)[C@H]4OC(=O)c1ccc[nH]1` [Compound 25, 18-Deoxy-18-oximino-8-O-1H-pyrrole-2′-carbonylbranimycin] returned an MIC of 1 µg/mL (≈ 1.7 µM).

`COC[C@@H]1[C@@H](O)[C@@H]2[C@H]3C=C[C@@H]4[C@@H](COC)C(=O)O[C@H]([C@H](O)COC)[C@H](C)/C=C(\C)[C@@]24O[C@H]3[C@@H]1OC(=O)c1cc(C#N)c[nH]1` [Compound 26, 8-O-4-Cyano-1H-pyrrole-2′-carbonylbranimycin] yielded an MIC of 8 µg/mL (≈ 13.3 µM).

`COC/C(=N\OC)[C@H]1OC(=O)[C@H](COC)[C@H]2C=C[C@H]3[C@H]4O[C@]2(/C(C)=C/[C@H]1C)[C@@H]3[C@H](O)[C@@H](COC)[C@H]4OC(=O)c1ccc[nH]1` [Compound 27, 18-Deoxy-18-methoximino-8-O-1H-pyrrole-2′-carbonylbranimycin]: the MIC was determined as 8 µg/mL (≈ 13.3 µM).

As for `COC[C@@H]1[C@@H](O)[C@@H]2[C@H]3C=C[C@@H]4[C@@H](COC)C(=O)O[C@H]([C@H](O)COC)[C@H](C)/C=C(\C)[C@@]24O[C@H]3[C@@H]1OC(=O)c1cc(Cl)c[nH]1` [Compound 28, 8-O-4-Chloro-1H-pyrrole-2′-carbonylbranimycin], the MIC was 4 µg/mL (≈ 6.56 µM).

Take `COCC(=NOC(C)=O)[C@H]1OC(=O)[C@H](COC)[C@H]2C=C[C@H]3[C@H]4O[C@]2(/C(C)=C/[C@H]1C)[C@@H]3[C@H](O)[C@@H](COC)[C@H]4OC(=O)c1ccc[nH]1` [Compound 29, 18-Acetylimino-18-deoxy-8-O-1H-pyrrole-2′-carbonylbranimycin]: the MIC stood at 2 µg/mL (≈ 3.17 µM).

With `COC[C@@H](O)[C@H]1OC(=O)[C@H](COC)[C@H]2C=C[C@H]3[C@H]4O[C@]2(/C(C)=C/[C@H]1C)[C@@H]3[C@H](O)[C@@H](C)[C@H]4OC(=O)c1cc(Cl)c[nH]1` [Compound 30, 8-O-4-Chloro-1H-pyrrole-2′-carbonylbaleomycin], the MIC was found to be 4 µg/mL (≈ 6.9 µM).

`COC[C@@H]1[C@@H](O)[C@@H]2[C@H]3C=C[C@@H]4[C@@H](COC)C(=O)O[C@H]([C@H](O)COC)[C@H](C)/C=C(\C)[C@@]24O[C@H]3[C@@H]1OC(=O)c1cc(Br)c[nH]1` [Compound 32, 8-O-4-Bromo-1H-pyrrole-2′-carbonylbranimycin] gave an MIC of 4 µg/mL (≈ 6.11 µM).
